The NIST ThermoML archive (doi:10.1016/j.jct.2016.11.003)
± gives the expanded uncertainty stated by the source. One block for each compound: values may come before it.

What was measured:
[1] = xn = mol fraction of the nth substance listed; details: 298 K, Crystal, X-ray diffraction
[2] = excess molar enthalpy (molar enthalpy of mixing); xn = mol fraction of the nth substance listed; details: 298 K, 100 kPa, Crystal, Calvet calorimetry
[3] = 298 K; 101 kPa; Crystal; X-ray diffraction

SMILES: O=P([O-])([O-])[O-].[Gd+3] [gadolinium orthophosphate] + O=P([O-])([O-])[O-].[La+3]
excess molar enthalpy ([2]; x1 = 0.24): 0.275 ± 0.287 kcal/mol | excess molar enthalpy ([2]; x1 = 0.44): 0.777 ± 0.287 kcal/mol | excess molar enthalpy ([2]; x1 = 0.55): 0.705 ± 0.311 kcal/mol | excess molar enthalpy ([2]; x1 = 0.76): 0.521 ± 0.239 kcal/mol | mass density ([1]; 100 kPa, x1 = 0.11): 5160 ± 30 kg/m3 | mass density ([1]; 100 kPa, x1 = 0.24): 5260 ± 30 kg/m3 | mass density ([1]; 100 kPa, x1 = 0.34): 5340 ± 30 kg/m3 | mass density ([1]; 100 kPa, x1 = 0.44): 5440 ± 40 kg/m3 | mass density ([1]; 100 kPa, x1 = 0.55): 5540 ± 30 kg/m3 | mass density ([1]; 100 kPa, x1 = 0.64): 5630 ± 30 kg/m3 | mass density ([1]; 100 kPa, x1 = 0.76): 5740 ± 40 kg/m3 | mass density ([1]; 100 kPa, x1 = 0.84): 5820 ± 40 kg/m3 | mass density ([1]; 100 kPa, x1 = 0.92): 5900 ± 40 kg/m3 | mass density ([1]; 100 kPa, x1 = 1): 5980 ± 40 kg/m3

SMILES: O=P([O-])([O-])[O-].[La+3] [lanthanum orthophosphate]
mass density [3]: 5060 ± 30 kg/m3

SMILES: O=P([O-])([O-])[O-].[Eu+3] [europium phosphate]
mass density [3]: 5810 ± 40 kg/m3

SMILES: O=P([O-])([O-])[O-].[Eu+3] [europium phosphate] + O=P([O-])([O-])[O-].[La+3]
excess molar enthalpy ([2]; x1 = 0.1): 0.452 ± 0.43 kcal/mol | excess molar enthalpy ([2]; x1 = 0.11): 0.234 ± 0.382 kcal/mol | excess molar enthalpy ([2]; x1 = 0.34): 0.129 ± 0.311 kcal/mol | excess molar enthalpy ([2]; x1 = 0.58): 0.203 ± 0.335 kcal/mol | excess molar enthalpy ([2]; x1 = 0.71): 0.0478 ± 0.263 kcal/mol | mass density ([1]; 101 kPa, x1 = 0.11): 5130 ± 30 kg/m3 | mass density ([1]; 101 kPa, x1 = 0.23): 5210 ± 30 kg/m3 | mass density ([1]; 101 kPa, x1 = 0.4): 5340 ± 30 kg/m3 | mass density ([1]; 101 kPa, x1 = 0.58): 5470 ± 30 kg/m3 | mass density ([1]; 101 kPa, x1 = 0.71): 5570 ± 30 kg/m3 | mass density ([1]; 101 kPa, x1 = 0.82): 5660 ± 30 kg/m3 | mass density ([1]; 101 kPa, x1 = 0.91): 5730 ± 30 kg/m3 | mass density ([1]; 101 kPa, x1 = 1): 5810 ± 40 kg/m3

SMILES: O=P([O-])([O-])[O-].[Gd+3] [gadolinium orthophosphate]
mass density [3]: 5980 ± 40 kg/m3

More lines, now with the values ahead:

mass density ([1]; 100 kPa, x2 = 0): 5060 ± 30 kg/m3
SMILES: O=P([O-])([O-])[O-].[La+3] [lanthanum orthophosphate] + O=P([O-])([O-])[O-].[Gd+3]

mass density ([1]; 101 kPa, x2 = 0): 5060 ± 30 kg/m3
SMILES: O=P([O-])([O-])[O-].[La+3] [lanthanum orthophosphate] + O=P([O-])([O-])[O-].[Eu+3]
